Source: the NIST ThermoML archive (doi:10.1016/j.fluid.2017.12.037)

Assay: xn = mol fraction of the nth substance listed
Details: Gas, Buoyancy - hydrostatic balance with magnetic suspension - one sinker

C=C(F)C(F)(F)F [2,3,3,3-tetrafluoro-1-propene] + FCF
Details | mass density [kg/m3]
279.8 K, 225 kPa, x1 = 0.202 | 6.518
279.81 K, 366 kPa, x1 = 0.202 | 10.881
279.82 K, 422 kPa, x1 = 0.61 | 18.046
279.82 K, 531 kPa, x1 = 0.202 | 16.362
279.99 K, 139 kPa, x1 = 0.61 | 5.52
280 K, 292 kPa, x1 = 0.61 | 12.065
289.13 K, 223 kPa, x1 = 0.202 | 6.201
289.13 K, 326 kPa, x1 = 0.202 | 9.243
289.13 K, 498 kPa, x1 = 0.202 | 14.57
289.14 K, 652 kPa, x1 = 0.202 | 19.613
289.24 K, 435 kPa, x1 = 0.61 | 17.849
289.25 K, 300 kPa, x1 = 0.61 | 11.915
289.27 K, 142 kPa, x1 = 0.61 | 5.456
289.35 K, 825 kPa, x1 = 0.062 | 21.899
289.47 K, 272 kPa, x1 = 0.062 | 6.547
289.52 K, 465 kPa, x1 = 0.062 | 11.568
298.56 K, 1030 kPa, x1 = 0.062 | 27.002
298.65 K, 448 kPa, x1 = 0.61 | 17.642
298.65 K, 795 kPa, x1 = 0.062 | 19.996
298.67 K, 524 kPa, x1 = 0.062 | 12.632
298.68 K, 146 kPa, x1 = 0.61 | 5.4
298.68 K, 314 kPa, x1 = 0.062 | 7.355
298.7 K, 309 kPa, x1 = 0.61 | 11.815
298.95 K, 208 kPa, x1 = 0.366 | 6.462
298.96 K, 416 kPa, x1 = 0.366 | 13.396
298.97 K, 629 kPa, x1 = 0.366 | 21.025
299.11 K, 197 kPa, x1 = 0.202 | 5.25
299.11 K, 460 kPa, x1 = 0.202 | 12.798
299.11 K, 653 kPa, x1 = 0.202 | 18.744
299.11 K, 817 kPa, x1 = 0.202 | 24.131
308.21 K, 285 kPa, x1 = 0.062 | 6.408
308.21 K, 465 kPa, x1 = 0.062 | 10.702
308.21 K, 692 kPa, x1 = 0.062 | 16.408
308.21 K, 839 kPa, x1 = 0.062 | 20.316
308.21 K, 1102 kPa, x1 = 0.062 | 27.74
308.23 K, 1301 kPa, x1 = 0.062 | 33.802
308.29 K, 170 kPa, x1 = 0.61 | 6.134
308.3 K, 340 kPa, x1 = 0.61 | 12.602
308.32 K, 577 kPa, x1 = 0.61 | 22.346
308.33 K, 769 kPa, x1 = 0.61 | 30.942
308.47 K, 201 kPa, x1 = 0.366 | 6.029
308.47 K, 387 kPa, x1 = 0.366 | 11.937
308.47 K, 560 kPa, x1 = 0.366 | 17.726
308.47 K, 794 kPa, x1 = 0.366 | 26.137
308.69 K, 226 kPa, x1 = 0.202 | 5.868
308.69 K, 390 kPa, x1 = 0.202 | 10.341
308.69 K, 569 kPa, x1 = 0.202 | 15.462
308.7 K, 735 kPa, x1 = 0.202 | 20.457
308.7 K, 1050 kPa, x1 = 0.202 | 30.682
317.75 K, 163 kPa, x1 = 0.062 | 3.497
317.75 K, 406 kPa, x1 = 0.062 | 8.95
317.75 K, 648 kPa, x1 = 0.062 | 14.699
317.75 K, 910 kPa, x1 = 0.062 | 21.311
317.75 K, 1331 kPa, x1 = 0.062 | 32.968
317.78 K, 1625 kPa, x1 = 0.062 | 42.032
317.89 K, 139 kPa, x1 = 0.61 | 4.816
317.89 K, 309 kPa, x1 = 0.61 | 11.009
317.9 K, 527 kPa, x1 = 0.61 | 19.436
317.92 K, 735 kPa, x1 = 0.61 | 28.033
317.92 K, 929 kPa, x1 = 0.61 | 36.73
318.29 K, 219 kPa, x1 = 0.202 | 5.48
318.29 K, 398 kPa, x1 = 0.202 | 10.192
318.29 K, 586 kPa, x1 = 0.202 | 15.349
318.29 K, 790 kPa, x1 = 0.202 | 21.254
318.29 K, 1058 kPa, x1 = 0.202 | 29.49
318.3 K, 1336 kPa, x1 = 0.202 | 38.819
318.53 K, 165 kPa, x1 = 0.366 | 4.746
318.53 K, 351 kPa, x1 = 0.366 | 10.354
318.53 K, 563 kPa, x1 = 0.366 | 17.123
318.53 K, 766 kPa, x1 = 0.366 | 23.969
318.53 K, 1009 kPa, x1 = 0.366 | 32.745
327.52 K, 157 kPa, x1 = 0.61 | 5.289
327.52 K, 329 kPa, x1 = 0.61 | 11.37
327.52 K, 536 kPa, x1 = 0.61 | 19.029
327.53 K, 930 kPa, x1 = 0.61 | 35.068
327.54 K, 1122 kPa, x1 = 0.61 | 43.758
327.55 K, 734 kPa, x1 = 0.61 | 26.847
328.33 K, 223 kPa, x1 = 0.062 | 4.64
328.34 K, 637 kPa, x1 = 0.062 | 13.854
328.34 K, 945 kPa, x1 = 0.062 | 21.307
328.34 K, 1335 kPa, x1 = 0.062 | 31.333
328.34 K, 1696 kPa, x1 = 0.062 | 41.656
328.34 K, 2027 kPa, x1 = 0.062 | 52.145
328.43 K, 227 kPa, x1 = 0.202 | 5.515
328.43 K, 367 kPa, x1 = 0.202 | 9.049
328.43 K, 626 kPa, x1 = 0.202 | 15.83
328.43 K, 849 kPa, x1 = 0.202 | 22.032
328.43 K, 1140 kPa, x1 = 0.202 | 30.631
328.43 K, 1427 kPa, x1 = 0.202 | 39.78
328.43 K, 1696 kPa, x1 = 0.202 | 49.141
328.58 K, 1144 kPa, x1 = 0.366 | 36.066
328.58 K, 1280 kPa, x1 = 0.366 | 41.182
328.6 K, 618 kPa, x1 = 0.366 | 18.221
328.6 K, 894 kPa, x1 = 0.366 | 27.268
328.61 K, 203 kPa, x1 = 0.366 | 5.679
328.61 K, 380 kPa, x1 = 0.366 | 10.866
337.94 K, 261 kPa, x1 = 0.062 | 5.321
337.94 K, 1368 kPa, x1 = 0.062 | 30.983
337.95 K, 1030 kPa, x1 = 0.062 | 22.524
337.95 K, 1871 kPa, x1 = 0.062 | 44.844
337.95 K, 2216 kPa, x1 = 0.062 | 54.98
338.06 K, 1097 kPa, x1 = 0.202 | 27.951
338.06 K, 1440 kPa, x1 = 0.202 | 38.107
338.06 K, 1722 kPa, x1 = 0.202 | 47.144
338.06 K, 2012 kPa, x1 = 0.202 | 57.214
338.07 K, 229 kPa, x1 = 0.202 | 5.349
338.07 K, 435 kPa, x1 = 0.202 | 10.38
338.07 K, 663 kPa, x1 = 0.202 | 16.152
338.07 K, 900 kPa, x1 = 0.202 | 22.468
338.13 K, 157 kPa, x1 = 0.61 | 5.11
338.13 K, 347 kPa, x1 = 0.61 | 11.583
338.13 K, 545 kPa, x1 = 0.61 | 18.632
338.14 K, 742 kPa, x1 = 0.61 | 26.034
338.14 K, 949 kPa, x1 = 0.61 | 34.303
338.15 K, 1176 kPa, x1 = 0.61 | 43.906
338.15 K, 1363 kPa, x1 = 0.61 | 52.402
338.27 K, 391 kPa, x1 = 0.366 | 10.828
338.27 K, 1611 kPa, x1 = 0.366 | 51.607
338.28 K, 203 kPa, x1 = 0.366 | 5.523
338.28 K, 605 kPa, x1 = 0.366 | 17.163
338.28 K, 888 kPa, x1 = 0.366 | 25.992
338.28 K, 1124 kPa, x1 = 0.366 | 33.805
338.28 K, 1339 kPa, x1 = 0.366 | 41.354
346.7 K, 514 kPa, x1 = 0.202 | 11.999
346.7 K, 754 kPa, x1 = 0.202 | 17.999
346.7 K, 1075 kPa, x1 = 0.202 | 26.432
346.71 K, 102 kPa, x1 = 0.202 | 2.301
346.71 K, 314 kPa, x1 = 0.202 | 7.219
346.71 K, 1395 kPa, x1 = 0.202 | 35.395
346.71 K, 1836 kPa, x1 = 0.202 | 48.831
346.71 K, 2339 kPa, x1 = 0.202 | 66.017
346.72 K, 2053 kPa, x1 = 0.202 | 55.971
347.61 K, 2249 kPa, x1 = 0.062 | 52.666
347.62 K, 600 kPa, x1 = 0.062 | 12.06
347.62 K, 1099 kPa, x1 = 0.062 | 23.044
347.62 K, 1445 kPa, x1 = 0.062 | 31.254
347.62 K, 2663 kPa, x1 = 0.062 | 65.472
347.8 K, 256 kPa, x1 = 0.61 | 8.159
347.81 K, 464 kPa, x1 = 0.61 | 15.105
347.81 K, 667 kPa, x1 = 0.61 | 22.236
347.81 K, 880 kPa, x1 = 0.61 | 30.083
347.81 K, 1108 kPa, x1 = 0.61 | 38.968
347.81 K, 1320 kPa, x1 = 0.61 | 47.76
347.81 K, 1481 kPa, x1 = 0.61 | 54.813
347.81 K, 1715 kPa, x1 = 0.61 | 65.61
347.93 K, 143 kPa, x1 = 0.366 | 3.726
347.93 K, 390 kPa, x1 = 0.366 | 10.422
347.93 K, 675 kPa, x1 = 0.366 | 18.538
347.93 K, 897 kPa, x1 = 0.366 | 25.186
347.93 K, 1198 kPa, x1 = 0.366 | 34.699
347.93 K, 1496 kPa, x1 = 0.366 | 44.776
347.93 K, 1753 kPa, x1 = 0.366 | 54.093
347.94 K, 2000 kPa, x1 = 0.366 | 63.729
